# Measurements reported in patent publication US20250127824A1, “BACTERIAL STRAIN USED IN THE PREVENTION AND/OR TREATMENT OF INFLAMMATORY PATHOLOGIES” (VERB BIOTICS, priority 2021, published 2025).
# Experiments:
# [1] = system: HT-29 colon adenocarcinoma line; assay: IL-8 secretion by TNF-α-stimulated HT-29 cells, supernatant with or without 5-ASA or Budesonide; format: cell-based; conditions: TNF-α 5 ng/ml, 6 h, 10% supernatant
# Procedure: The HT-29 cells (ECACC) were inoculated into 24-well plates at 3×10^5 cells per well in McCoy's 5A (Gibco) medium supplemented with 10% fetal calf serum (FCS, Gibco) and incubated at 37° C./5% […] for 24 h. The cells were washed with PBS-1× (Gibco) and cultivated for an additional 24 h in McCoy's 5A medium at 2% FCS. The cells were then stimulated for 6 hours with 5 ng/ml of TNF-α in the presence of 10% of supernatant in stationary phase of DSM 33715 or of bacterial culture medium as control (ctrl), whether or not in the presence of anti-inflammatory agents. 5-ASA (10 mM) and budesonide (20 μM) are molecules used in the treatment of inflammatory diseases, such as ulcerative colitis and Crohn's disease. After 6 h, the cell culture supernatants were collected and stored at −80° C. until the […] was quantified by ELISA. The IL-8 assay was carried out by BioLegend specific ELISA, according to the manufacturer's instructions. The absorbance at 460 nm was read using the FluoStar Omega microplate reader of BMG Labtech. Statistics: Sidak's multiple comparisons test. * p<0.05, ** p<0.01, *** […], **** p<0.0001. […]
# [2] = system: JAK/STAT pathway; assay: JAK/STAT luciferase reporter in IFN-γ-stimulated HT-29 cells, supernatant with or without Tofacitinib; format: cell-based; conditions: 10% supernatant, Tofacitinib 1 μM, 6 h
# Procedure: HT-29 cells at a density of 3×10^5 cells/well, in 24-well plate, were transfected according to a reverse-transfection protocol, with 200 ng of pGL4 luc2P GAS-RE (IFN-γ-dependent JAK/STAT signaling pathway) and 10 ng of pRL-TK vector (Promega), using X-tremeGENE HP DNA transfection reagent with a 3:1 ratio (Roche). To summarize, the reactive/DNA transfection complexes were prepared in a final volume of 50 μl of McCoy's 5A without serum and without antibiotic, the appropriate amount of each plasmid was added and homogenized, and then the transfection agent was added (3:1). The transfection complexes were carefully mixed and incubated at room temperature for 15 minutes. After incubation, the transfection complexes were added to the freshly resuspended HT-29 cells at the appropriate density in McCoy's 5A medium supplemented with 10% FCS, and then the cell/transfection complex mixtures were gently homogenized and placed on plates. The plates were incubated for 24 h in a humid atmosphere at 5% C02 and the medium was then replaced with medium at 2% FCS for 12 h, after washing with PBS IX. […]
# The activity of the luciferase Firefly was read. Then 50 μl reagent Stop&Glo was added and the measurement of the Renilla activity was read with the FLUOstar Omega plate reader (BMG Labtech). […]
structure (smiles),measurement,setting,value
Nc1ccc(O)c(C(=O)O)c1 [5-ASA],secretion of IL-8 reduced relative to the control (Panel A),[1]; 5-ASA 10 mM,38%
CCCC1O[C@@H]2C[C@H]3[C@@H]4CCC5=CC(=O)C=C[C@]5(C)[C@H]4[C@@H](O)C[C@]3(C)[C@]2(C(=O)CO)O1 (stereo partly drawn) [Budesonide],secretion of IL-8 reduced relative to the control (Panel B),[1]; budesonide 20 μM,38%
C[C@@H]1CCN(C(=O)CC#N)C[C@@H]1N(C)c1ncnc2[nH]ccc12 [Tofacitinib],decrease in the IFN-γ-induced activation of the JAK/STAT pathway,[2],49%
